Test results from patent US8512709B2, “Modified amyloid β peptide” (The Chemo-Sero-Therapeutic Research Institue, priority 2008, dated 2013).

Test system: Aβ peptide (1-40 amino acid sequence)
Test: Anti-Aβ IgG antibody titer of murine serum after immunization with Aβ peptides (ELISA on immobilized Aβ 1-40)
Type: in vivo, C57BL/6 mice
Conditions: for Antibody titer Animal No. 1 / Antibody titer Animal No. 2 / Antibody titer Animal No. 3 / Antibody titer Animal No. 4: C57BL/6 mouse serum, Day 7 from final 3rd immunization; for Antibody titer Animal No. 1 / Antibody titer Animal No. 2 / Antibody titer Animal No. 3 / Antibody titer Animal No. 4 / Antibody titer Mean: 100 μg/mouse; for Antibody titer Mean: mean of 4 mice, serum Day 7 from final 3rd immunization
[1] = Example 4, result in words on Table 4
[2] = Example 2, result in words on Table 2

EFRHDSGYKGAIIGLMVGC (added cysteine) [3-10•28-37AACys, 3-10+28-37-amino acid Aβ peptide with addition of Cysteine]
Antibody titer Animal No. 1 (Example 4): 3203 ng/mL
Antibody titer Animal No. 2 (Example 4): 1456 ng/mL
Antibody titer Animal No. 3 (Example 4): 4500 ng/mL
Antibody titer Animal No. 4 (Example 4): 52 ng/mL
Antibody titer Mean (Example 4): 2302.8 ng/mL
induction of an antibody to Aβ [1]: observed

DAEFRHDSGYKGAIIGLMVGGVVIAC [1-10•28-42AACys, 1-10+28-42-amino acid Aβ peptide with addition of Cysteine]
antibody titer against Aβ as compared to the peptide without addition of cysteine (1-10·28-42AA) (Example 1): higher antibody titer
Antibody titer Animal No. 1 (Example 1): 46266 ng/mL
Antibody titer Animal No. 2 (Example 1): 19854 ng/mL
Antibody titer Animal No. 3 (Example 1): 40681 ng/mL
Antibody titer Animal No. 4 (Example 1): 33 ng/mL
Antibody titer Mean (Example 1): 26708.6 ng/mL
induction of an antibody to Aβ (Example 1, result in words on Table 1): observed
Antibody titer Animal No. 1 (Example 2): 32 ng/mL
Antibody titer Animal No. 2 (Example 2): 30482 ng/mL
Antibody titer Animal No. 3 (Example 2): 33623 ng/mL
Antibody titer Animal No. 4 (Example 2): 2072 ng/mL
Antibody titer Mean (Example 2): 16552.3 ng/mL
induction of an antibody to Aβ [2]: observed
Antibody titer Animal No. 1 (Example 5): 886.2 ng/mL
Antibody titer Animal No. 2 (Example 5): 463379 ng/mL
Antibody titer Animal No. 3 (Example 5): 414.8 ng/mL
Antibody titer Animal No. 4 (Example 5): 3314 ng/mL
Antibody titer Mean (Example 5): 116998.5 ng/mL

DAEFRHDSKGAIIGLMVGC [1-8•28-37AACys, 1-8+28-37-amino acid Aβ peptide with addition of Cysteine]
Antibody titer Animal No. 1 (Example 3): 16 ng/mL
Antibody titer Animal No. 2 (Example 3): 16 ng/mL
Antibody titer Animal No. 3 (Example 3): 43 ng/mL
Antibody titer Animal No. 4 (Example 3): 31 ng/mL
Antibody titer Mean (Example 3): 26.4 ng/mL

DAEFRHDSGYKGAIIGLMVGGC [1-10•28-38AACys, 1-10+28-38-amino acid Aβ peptide with addition of Cysteine]
Antibody titer Animal No. 1 (Example 2): 19149 ng/mL
Antibody titer Animal No. 2 (Example 2): 34270 ng/mL
Antibody titer Animal No. 3 (Example 2): 108780 ng/mL
Antibody titer Animal No. 4 (Example 2): 61824 ng/mL
Antibody titer Mean (Example 2): 56005.8 ng/mL
induction of an antibody to Aβ [2]: observed

DAEFRHDSGYEVHHQKLVCKGAIIGLMVG [1-18Cys28-37AA, Aβ residues 1-18, cysteine, then Aβ residues 28-37]
Antibody titer Animal No. 1 (Example 8): 12541 ng/mL
Antibody titer Animal No. 2 (Example 8): 1964 ng/mL
Antibody titer Animal No. 3 (Example 8): 599 ng/mL
Antibody titer Animal No. 4 (Example 8): 25102 ng/mL
Antibody titer Mean (Example 8): 10051.5 ng/mL
induction of an antibody to Aβ (Example 8, result in words on Table 8): observed

DAEFRHDSGYKGAIIGLMVC [1-10•28-36AACys, 1-10+28-36-amino acid Aβ peptide with addition of Cysteine]
Antibody titer Animal No. 1 (Example 2): 11821 ng/mL
Antibody titer Animal No. 2 (Example 2): 259763 ng/mL
Antibody titer Animal No. 3 (Example 2): 77 ng/mL
Antibody titer Animal No. 4 (Example 2): 44922 ng/mL
Antibody titer Mean (Example 2): 79145.6 ng/mL
induction of an antibody to Aβ [2]: observed

DAEFRHDSGYKGAIIGLMVGGVVIC [1-10•28-41AACys, 1-10+28-41-amino acid Aβ peptide with addition of Cysteine]
Antibody titer Animal No. 1 (Example 2): 292 ng/mL
Antibody titer Animal No. 2 (Example 2): 1000 ng/mL
Antibody titer Animal No. 3 (Example 2): 48460 ng/mL
Antibody titer Animal No. 4 (Example 2): 422012 ng/mL
Antibody titer Mean (Example 2): 117941.1 ng/mL
induction of an antibody to Aβ [2]: observed

DAEFRHDSGYEVHHQKLVKGAIIGLMVGC [1-18•28-37AACys]
Antibody titer Animal No. 1 (Example 8): 11 ng/mL
Antibody titer Animal No. 2 (Example 8): 9 ng/mL
Antibody titer Animal No. 3 (Example 8): 10 ng/mL
Antibody titer Animal No. 4 (Example 8): 13 ng/mL
Antibody titer Mean (Example 8): 10.75 ng/mL

AEFRHDSGYKGAIIGLMVGC [2-10•28-37AACys, 2-10+28-37-amino acid Aβ peptide with addition of Cysteine]
Antibody titer Animal No. 1 (Example 4): 72890 ng/mL
Antibody titer Animal No. 2 (Example 4): 57573 ng/mL
Antibody titer Animal No. 3 (Example 4): 6094 ng/mL
Antibody titer Animal No. 4 (Example 4): 42593 ng/mL
Antibody titer Mean (Example 4): 44787.5 ng/mL
induction of an antibody to Aβ [1]: observed

DAEFRHDSGYGAIIGLMVGGVVIAC [1-10•29-42AACys, 1-10+29-42-amino acid Aβ peptide with addition of Cysteine]
Antibody titer Animal No. 1 (Example 1): 16 ng/mL
Antibody titer Animal No. 2 (Example 1): 16 ng/mL
Antibody titer Animal No. 3 (Example 1): 87 ng/mL
Antibody titer Animal No. 4 (Example 1): 11 ng/mL
Antibody titer Mean (Example 1): 32.6 ng/mL

AEFRHDSGKGAIIGLMVGC (added cysteine) [2-9•28-37AACys, 2-9+28-37-amino acid Aβ peptide with addition of Cysteine]
Antibody titer Animal No. 1 (Example 4): 7038 ng/mL
Antibody titer Animal No. 2 (Example 4): 29489 ng/mL
Antibody titer Animal No. 3 (Example 4): 16 ng/mL
Antibody titer Animal No. 4 (Example 4): 17 ng/mL
Antibody titer Mean (Example 4): 9139.9 ng/mL
induction of an antibody to Aβ [1]: observed
